Here are results for seven molecules from patent US9428753B2, “Use of LXR antagonists for treatment of side effects of elevated glucocorticoid levels” (The Governing Council of the University of Toronto, priority 2013, dated 2016).

One assay concerns Pepck. Briefly: Pepck gene expression in mouse primary hepatocytes. It is filed as cell-based. The note with it: for GC-induced Pepck expression: Example 6, GC alone (10 μM; Dex 100 nM).
A further assay concerns G6Pc. Nature of the assay: G6Pc gene expression in mouse primary hepatocytes. The note with it: LXRα−/− hepatocytes; for GC-induced G6Pc expression: Example 6, GC alone (10 μM; Dex 100 nM), overnight; for G6Pc expression: 100 nM Dex + 10 μM LXR antagonist.
The next assay has as its target T1, GR (Homo sapiens, UniProt P04150).
T1 sequence (P04150 524-758 limits assumed): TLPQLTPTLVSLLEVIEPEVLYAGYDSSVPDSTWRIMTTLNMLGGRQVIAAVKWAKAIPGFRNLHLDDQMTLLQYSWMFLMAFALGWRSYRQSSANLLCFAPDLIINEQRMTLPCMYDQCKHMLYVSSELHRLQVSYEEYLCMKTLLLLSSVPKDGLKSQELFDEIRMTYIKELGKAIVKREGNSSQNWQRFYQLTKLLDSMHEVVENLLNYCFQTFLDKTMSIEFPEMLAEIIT
Nature of the assay: GAL4-GR / UAS-luc co-transfection reporter assay in HEK293 cells. It counts as cell-based. The note with it: Example 7, 100 nM Dex. Further details: co-transfecting UAS-reporter and GAL4-LBD of the nuclear receptors LXRα, LXRβ and GR; GAL4 (fusion partner); expressed in transfected cells; host or cells: HEK293 cells; mouse primary hepatocytes. The protocol: (§1) RLU=relative luciferase units.
as §1
Further experiments were then carried out to determine the inhibitory potencies for the individual LXR isoforms in HEK 293 cells by co-transfecting UAS-reporter and GAL4-LBD of the nuclear receptors LXRα, LXRβ and GR and then treating with 8 different concentrations of GSK2033. To assess suppression of ligand activated receptors, the transfected cells were co-treated with increasing doses of GSK2033, in addition to T09091317 or Dex (dexamethasone) (at EC80 of LXR isoforms and GR, respectively).
A number of experiments were carried out to determine the relative inhibitory potencies of GSK2033, Amgen 54 and DMHCl for the individual LXR isoforms in HEK 293 cells by co-transfecting UAS-reporter and GAL4-LBD of the nuclear receptors LXRα, LXRβ and GR and then treating with 6 different concentrations of GSK2033, Amgen 54 and DMHCl. To assess suppression of ligand activated receptors, the transfected cells were co-treated with increasing doses of GSK2033, Amgen 54 and DMHCl, in addition to T09091317 or Dex (at EC80 of LXR isoforms and GR, respectively).
On the technique in general: Reporter assays use an easily measured gene product as a stand-in for the process of interest.

In assay [1] the test system is tyrosine aminotransferase (TAT). Briefly: TAT gene expression in mouse primary hepatocytes. It counts as cell-based. The note with it: 100 nM Dex. The protocol: T09 treatment was used as a positive control for LXR activity. (D) Glucose output over 24 hrs from LXRα−/− and LXRβ−/− mouse primary hepatocytes following Dex 100 nM±10 μM GSK2033 treatment. (E) Glucose output over 8 hrs from WT hepatocytes following Dex 500 nM±10 μM GSK2033 treatments. […] Legend: V=vehicle, G=GSK2033 (LXR antagonist); D=dexamethasone (GR agonist); and T09=T0901317 (LXR agonist).

The subject of assay [2] is mouse primary hepatocytes. Briefly: Glucose production (glucose output) in mouse primary hepatocytes. It counts as cell-based. The method, then: T09 treatment was used as a positive control for LXR activity. (D) Glucose output over 24 hrs from LXRα−/− and LXRβ−/− mouse primary hepatocytes following Dex 100 nM±10 μM GSK2033 treatment. (E) Glucose output over 8 hrs from WT hepatocytes following Dex 500 nM±10 μM GSK2033 treatments. Data represent the Avg±SD, N=3. *P<0.05 by One way ANOVA, Student Newman Keuls. Legend: V=vehicle, G=GSK2033 (LXR antagonist); D=dexamethasone (GR agonist); and T09=T0901317 (LXR agonist).
While not wishing to be limited by theory, subsequent to conducting these initial studies it was realized that 24 hour incubation of hepatocytes in gluconeogenic media may be too long. In the literature, for this type of assay, primary heptocytes are usually incubated up to 12 hours. As such, for subsequent studies of the present application, WT cells were treated with 500 nM Dex for 8 hours to be able to measure detectable levels of glucose in the media.

The next assay deals with LXRα−/− mice. Briefly: In vivo 5 day Dex ± GSK2033 co-treatment study. On the set-up: species or system mouse. The note with it: Dex group. The method, then:
LXRα−/− mice were treated with Vehicle (Veh), Dex (2.5 mg/kg) b.i.d. or GSK2033 40 mg/kg (once a day) along with Dex b.i.d. for 5 days. (A) Plasma glucose levels were measured by a colorimetric kit (Wako). (B) Spleen weights were measured at the time of sacrifice, and are presented normalized to body weight. (C) Liver Pepck, FOXO1, Pgc 1α, FGF21, GR and LXRβ gene expression measured by QPCR. Data represent the Avg±SEM, N=2-5. *P<0.05 by One way ANOVA, Student Newman Keuls.
Having observed promising results with GSK2033 co-treatment with Dex in-vitro (GSK2033-mediated suppression of GC-induced gluconeogenic side effects without affecting desirable immune suppression); a study was conducted, in which whole body LXRα−/− mice were treated with vehicle (Veh), 2.5 mg/kg bid (subcutaneous injection) Dex or Dex+40 mg/kg GSK2033 (once a day intraperitoneal injection) for 5 days, and sacrificed at lights on.

Another assay concerns IL-1β. Nature of the assay: IL-1β gene expression in LPS activated mouse primary macrophages (RT-QPCR). It counts as cell-based. The note with it: LPS activated macrophages; 250 nM T09, 18 hrs. The protocol: (§2) The expression of genes involved in immune response IL-1β, IL-6 and GILZ was measured following an overnight treatment with Dex 100 nM, 250 nM T0901317 (T09), and/or 10 μM GSK2033 in LPS activated WT, LXR α −/− and LXRβ −/− mouse primary macrophages, by RT-QPCR. Data represent the Avg±SD, N=3. *P<0.05 by One way ANOVA, Student Newman Keuls.
(§3) To assess the ability of GSK2033 to affect GR-mediated inflammatory suppression, a number of gene expression studies were conducted on primary macrophages isolated from WT, LXRα−/− and LXRβ−/− mice. Cells were pre-treated with 10 ng/ml lipopolysaccharide (LPS) for 6 hrs (to induce a potent inflammatory response) followed by treatment of 100 nM Dex, 10 μM GSK2033 and/or 250 nM T09 for 18 hrs.

For the next assay, the system named is IL-6. Briefly: IL-6 gene expression in LPS activated mouse primary macrophages (RT-QPCR). It is filed as cell-based. The note with it: LPS activated macrophages; 250 nM T09, 18 hrs. The method, then:
as §2, §3

Another assay relates to Srebp-1c. Nature of the assay: Srebp-1c gene expression in mouse primary hepatocytes. It is filed as cell-based. The note with it: 250 nM T09.
The mark [3] stands for this setting: Example 8, LXRα−/− hepatocytes, 100 nM Dex + 10 μM LXR antagonist.

Description for G6Pc: For the gene expression studies, the isolated hepatocytes were cultured at least 24 hrs prior to treatment with 10 μM Cortisol, 10 μM Triamcinolone acetonide, 10 μM Prednisone, and 100 nM Dex all±10 μM GSK2033 overnight, and then harvested to isolate mRNA.

For the molecule `C[C@]12C=CC(=O)C=C1CC[C@@H]1[C@@H]2C(=O)C[C@@]2(C)[C@H]1CC[C@]2(O)C(=O)CO` [Prednisone, prednisone], the “GC-induced Pepck expression” value in the assay on Pepck (LXRα−/− hepatocytes, overnight) was found to be 9.3 fold. Besides, in the assay with G6Pc, the “GC-induced G6Pc expression” value was determined as 22.3 fold.

Turning to `CS(=O)(=O)c1ccc(C#CC(O)(c2ccc(N(CC3CC3)S(=O)(=O)c3ccccc3)cc2)C(F)(F)F)cc1` (stereo not drawn) [Amgen 54], the Pepck expression in the assay with Pepck (setting [3]) is 8.4 fold. The G6Pc expression in the assay with G6Pc (Example 8) amounted to 6.5 fold. For the same molecule, the “Dex induced GR activity” value at GR is “unaffected”.

Take `C[C@@H]1C[C@H]2[C@@H]3CCC4=CC(=O)C=C[C@]4(C)[C@@]3(F)[C@@H](O)C[C@]2(C)[C@@]1(O)C(=O)CO` [Dex, dexamethasone]: the Pepck expression in the assay on Pepck (Example 3, LXRα−/− hepatocytes, 100 nM Dex alone) came to 15.7 fold; in the assay on Pepck (Example 3, WT hepatocytes, 100 nM Dex alone, overnight), 8.5 fold. In addition, the “GC-induced Pepck expression” value with Pepck (LXRα−/− hepatocytes, overnight) worked out at 23.2 fold. For the same molecule, the “Dex-induced Pepck expression” value with Pepck (Example 8, LXRα−/− hepatocytes, 100 nM Dex alone) was 15.8 fold. Further, the “TAT expression (induction)” value in assay [1] (LXRα−/− hepatocytes) amounted to 12.7 fold; in [1] (LXRβ−/− hepatocytes) it was 9.7 fold; in assay [1] (WT hepatocytes), 20.8 fold. Besides, the “glucose secretion (glucose output)” value in assay [2] (LXRα−/− hepatocytes, 100 nM Dex alone, 24 hours) is 2.2 fold; in assay [2] (WT hepatocytes, 500 nM Dex alone, 8 hours) it was 3 fold. Also, in the assay with LXRα−/− mice, the “liver FOXO 1 gene expression (induction)” value turned out to be 3.3 fold. Moreover, the “liver Pepck gene expression (induction)” value in the assay on LXRα−/− mice turned out to be 3.7 fold. Also, in the assay with G6Pc, the “GC-induced G6Pc expression” value turned out to be 11.2 fold. Moreover, the “Dex-mediated G6Pc expression” value in the assay with G6Pc (Example 8, 100 nM Dex alone) was 10.3 fold.

Take `CC1(C)O[C@@H]2C[C@H]3[C@@H]4CCC5=CC(=O)C=C[C@]5(C)[C@@]4(F)[C@@H](O)C[C@]3(C)[C@]2(C(=O)CO)O1` [Triamcinolone acetonide, triamcinolone acetonide]: the “GC-induced Pepck expression” value in the assay with Pepck (LXRα−/− hepatocytes, overnight) is given as 6.1 fold. For the same molecule, in the assay on G6Pc, the “GC-induced G6Pc expression” value was 27.3 fold.

Turning to `CC(CCC(=O)N(C)C)[C@H]1CC[C@H]2C3CC=C4CC(Cl)CC[C@]4(C)C3CC[C@]12C` (stereo partly drawn) [DMHCl], the Pepck expression in the assay with Pepck (setting [3]) came out at 1.4 fold. Also, the G6Pc expression with G6Pc (Example 8) is 3.9 fold. Also, the “Dex induced GR activity” value at GR is “unaffected”.

As to `C[C@]12CCC(=O)C=C1CC[C@@H]1[C@@H]2[C@@H](O)C[C@@]2(C)[C@H]1CC[C@]2(O)C(=O)CO` [Cortisol, cortisol (hydrocortisone)], the “GC-induced Pepck expression” value in the assay with Pepck (LXRα−/− hepatocytes, overnight) stood at 23.9 fold. In addition, in the assay on G6Pc, the “GC-induced G6Pc expression” value was 10.3 fold.

For the molecule `O=S(=O)(c1ccccc1)N(CC(F)(F)F)c1ccc(C(O)(C(F)(F)F)C(F)(F)F)cc1` [T09], the “IL-1β expression, LXR agonist alone” value in the assay with IL-1β is given as “suppression”. In addition, in the assay on IL-6, the “IL-6 expression, LXR agonist alone” value is “suppression”. In addition, the “Srebp-1c expression (induction)” value in the assay with Srebp-1c (LXRα−/− hepatocytes) was 3.7 fold; in the assay on Srebp-1c (LXRβ−/− hepatocytes), 42.0 fold; with Srebp-1c (WT hepatocytes) it was 37.7 fold.
